Experimental data taken from article PMC11542830, “3-nitropyridine analogues as novel microtubule-targeting agents” (PLOS ONE, 2024).
Read-outs that look alike come from different tables or passages of the source.

Legend:
PC3 cells = assay: 3-day MTS cell viability assay, PC3; type: cell-based; conditions: Homo sapiens, PC-3, 72 hours, Fig 1C
Description: All cancer cell lines (HT-29: colorectal adenocarcinoma, HCT-116: colorectal carcinoma, A549: lung epithelial carcinoma, PC3: prostate adenocarcinoma, Jurkat: acute T-cell leukemia, BC-1: primary effusion lymphoma) and the normal human embryonal lung fibroblast cell line MRC-5 were acquired from the American Type Culture Collection (ATCC). All cell lines were cultured as recommended by the suppliers. Culture media were purchased from Gibco (Thermo Fisher Scientific) and supplemented with 10 to 20% fetal bovine serum (HyClone, GE Healthcare Life Sciences) and 20–25 μg/mL gentamicin (Gibco, Thermo Fisher Scientific). […]
(§1) Cell viability in cancer cell lines treated with compound was measured in a 3-day MTS cell proliferation assay using the CellTiter 96 AQueous Non-Radioactive Cell Proliferation Assay reagent (Promega) according to the manufacturer’s instructions. Absorbance was read at 490 nm on a SaFire II microplate reader (Tecan). CC50 values were calculated by fitting the obtained MTS cell viability data in GraphPad Prism using a 4-parameter log–based fit for inhibitors. Apoptosis induction and cell death upon compound treatment in PBMC was measured using the Alexa Fluor 488 Annexin V/Dead Cell Apoptosis Kit (Thermo Fisher Scientific), with readout on a FACSCanto II flow cytometer (BD Biosciences). […] The compounds were evaluated in duplo in two independent experiments.

Jurkat cells = assay: Cell cycle analysis (DAPI, high content imaging), Jurkat; type: cell-based, human; conditions: 24 hours
Description: as §1, with “Biosciences). For cell cycle analysis, Jurkat cells were seeded at 400,000 cells per well in 12-well tissue culture plates and treated with the test compounds at the indicated concentrations for 24 h. Cells were then harvested by centrifugation at 400 x g, washed in PBS and transferred to an 8-well μ-Slide (Ibidi) that had been pretreated with 0.1% (w/v) poly-L-lysine (Sigma). Cells were allowed to adhere to the slides, fixed with 4% PFA in PBS for 10 minutes, washed and stained with DAPI.” for “Biosciences).”

primary cortical neurons = assay: Neurite outgrowth assay; type: cell-based, Sprague-Dawley rat; conditions: Primary cortical neuron, rat primary cortical neurons, 72 hours
Description: Neurite outgrowth assay was performed by Fluofarma (Pessac, France). Primary cortical neurons were harvested from E19 Sprague-Dawley (Janvier Labs) rat embryos, dissociated and plated at 10,000 per well in a tissue-culture treated 96 well plate, in neuronal medium (SM2 matrix independent growth medium, Stem Cell Technologies). Neurons were followed by phase contrast imaging with 1 image acquired every 4 hours, using an Incucyte Zoom (Essen BioScience) with a 20x objective. Four fields per well were acquired. After 24 hours, cells were treated with test compounds and neurite outgrowth was followed for 72 hours post-treatment. All measures were performed in triplicate in one experiment.
Neurite outgrowth kinetics were analyzed from each phase contrast image using the Neurotrack module of the Incucyte Zoom platform. Neurite length and branch points were obtained for each time point. The area under the curve (AUC) was calculated in each experimental condition (GraphPad Prism 6, GraphPad Software).

CCRF-CEM = assay: NCI60 5-dose screen, CCRF-CEM; type: cell-based; conditions: Homo sapiens, leukemia, Fig 1D, read-out: Log10 GI50 (CCRF-CEM) (converted)
Description: (§2) The screening methodology used in the NCI60 Cell 5-Doses screen is described in detail at https://dtp.cancer.gov/discovery_development/nci-60/methodology.htm. Briefly, cells are seeded in 96 well plates at an appropriate density and incubated for 1 day. After 1 day, some of the plates are processed to determine a time zero density. To the remaining plates, compounds are added over a 5-log M concentration range (1 log dilutions from 10^-4M to 10^-8M). Plates are incubated for two additional days, then fixed and stained with sulforhodamine B. Growth inhibition is calculated relative to cells without drug treatment and the time zero control. The GI50 is the concentration of a compound that causes 50% growth inhibition, relative to the no drug control.

K-562 = assay: NCI60 5-dose screen, K-562; type: cell-based; conditions: Homo sapiens, K562; leukemia; Fig 1D; read-out: Log10 GI50 (K-562) (converted)
Description: as §2

SR = assay: NCI60 5-dose screen, SR; type: cell-based; conditions: Homo sapiens, leukemia, Fig 1D, read-out: Log10 GI50 (SR) (converted)
Description: as §2

HOP-62 = assay: NCI60 5-dose screen, HOP-62; type: cell-based; conditions: Homo sapiens, non-small cell lung cancer, Fig 1D, read-out: Log10 GI50 (HOP-62) (converted)
Description: as §2

NCI-H23 = assay: NCI60 5-dose screen, NCI-H23; type: cell-based; conditions: Homo sapiens, non-small cell lung cancer, Fig 1D, read-out: Log10 GI50 (NCI-H23) (converted)
Description: as §2

HCT-116 = assay: NCI60 5-dose screen, HCT-116; type: cell-based; conditions: Homo sapiens, colon cancer, Fig 1D, read-out: Log10 GI50 (HCT-116) (converted)
Description: as §2

U251 = assay: NCI60 5-dose screen, U251; type: cell-based; conditions: Homo sapiens, U-251; CNS cancer; Fig 1D; read-out: Log10 GI50 (U251) (converted)
Description: as §2

LOX IMVI = assay: NCI60 5-dose screen, LOX IMVI; type: cell-based; conditions: Homo sapiens, melanoma, Fig 1D, read-out: Log10 GI50 (LOX IMVI) (converted)
Description: as §2

MDA-MB-435 = assay: NCI60 5-dose screen, MDA-MB-435; type: cell-based; conditions: Homo sapiens, melanoma, Fig 1D, read-out: Log10 GI50 (MDA-MB-435) (converted)
Description: as §2

SK-MEL-5 = assay: NCI60 5-dose screen, SK-MEL-5; type: cell-based; conditions: Homo sapiens, melanoma, Fig 1D, read-out: Log10 GI50 (SK-MEL-5) (converted)
Description: as §2

SK-OV-3 = assay: NCI60 5-dose screen, SK-OV-3; type: cell-based; conditions: Homo sapiens, ovarian cancer, Fig 1D, read-out: Log10 GI50 (SK-OV-3) (converted)
Description: as §2

TK-10 = assay: NCI60 5-dose screen, TK-10; type: cell-based; conditions: Homo sapiens, renal cancer, Fig 1D, read-out: Log10 GI50 (TK-10) (converted)
Description: as §2

BT-549 = assay: NCI60 5-dose screen, BT-549; type: cell-based; conditions: Homo sapiens, breast cancer, Fig 1D, read-out: Log10 GI50 (BT-549) (converted)
Description: as §2

MDA-MB-468 = assay: NCI60 5-dose screen, MDA-MB-468; type: cell-based; conditions: Homo sapiens, breast cancer, Fig 1D, read-out: Log10 GI50 (MDA-MB-468) (converted)
Description: as §2

[1] = read-out: IC50 for branch point formation
[2] = read-out: IC50 for neurite length

Compound	IC50 (PC3 cells) [nM]	effect on cell cycle progression (Jurkat cells)	IC50 (primary cortical neurons; [1]) [nM]	IC50 (primary cortical neurons; [2]) [nM]	GI50 (CCRF-CEM) [nM]	GI50 (K-562) [nM]	GI50 (SR) [nM]	GI50 (HOP-62) [nM]	GI50 (NCI-H23) [nM]	GI50 (HCT-116) [nM]	GI50 (U251) [nM]	GI50 (LOX IMVI) [nM]	GI50 (MDA-MB-435) [nM]	GI50 (SK-MEL-5) [nM]	GI50 (SK-OV-3) [nM]	GI50 (TK-10) [nM]	GI50 (BT-549) [nM]	GI50 (MDA-MB-468) [nM]
Cc1cc(C)cc(Nc2ccc([N+](=O)[O-])c(NCCN3CCOCC3)n2)c1 [Compound 4AZA2891, 6-(3,5-dimethylanilino)-2-(2-morpholinoethylamino)-3-nitropyridine]	11.9	induce G2 cell cycle arrest	8	10	33.1	11.5	17.4	30.2	27.5	14.8	30.9	11.5	< 10	< 10	58.9	12900	58.9	< 10
Cc1ccnc(Nc2ccc([N+](=O)[O-])c(NCCN3CCOCC3)n2)c1 [Compound 4AZA2996, N^6-(4-methylpyridin-2-yl)-N^2-(2-morpholinoethyl)-3-nitropyridine-2,6-diamine]	9.5	induce G2 cell cycle arrest	7.4	9.5	26.3	< 10	< 10	< 10	15.5	< 10	< 10	< 10	< 10	< 10	< 10	18600	19.1	27.5
